# Reference: US10071163B2, “Compositions and methods for selective delivery of oligonucleotide molecules to specific neuron types” (nLife Therapeutics, S.L., priority 2010, dated 2018)
# Key:
# [1] = system: noradrenergic neurons of the locus coeruleus; assay: Confocal localization of Cy3 label in locus coeruleus after ICV administration; type: in vivo, mice; details: FIG. 18
# Method: (§1) For the infusion of siRNAs, C57BV6Ncr1 male mice were deeply anesthetized with isofluorane and placed in a mouse adaptor (Stoelting ref. 51625) attached to a stereotaxic frame with digital display readout (David Kopf Instruments, model 940). […] The needle was left in the place for 3 min to avoid upward flow of the siRNA solution.
# (§2) The mice were perfused with 4% PFA at two different time points, 1 and 3 hours post-administration of the siRNA. Brains were dissected and post-fixed in a solution of 4% PFA for 24 h at 4° C. Then brains were placed in a 30% sucrose solution for 48 h at 4° C. Brains were frozen in 2-methylbutane at −30 to −40° C. and stored at −80° C. Brains were sectioned in a cryostat Leica CM3050 S ([…]). Free-floating sections were washed and stored at 4° C. in 0.1 M PBS and 0.001% sodium azide.
# (§3) Sections were washed in PBS, blocked with 2% goat serum and 0.1% Triton and incubated with anti-TH antibody (1:800 mouse) overnight at 4° C. After washing, sections were incubated with secondary antibody Alexa Fluor 647 anti-mouse (Invitrogen) for 1 h at room temperature. Finally sections were mounted with Dako Fluorescent Mounting Medium and analyzed using a confocal spectral microscope (FV 1000 Olympus). Pictures were generated using FV 10-ASW 1.7 Viewer.
# [2] = system: dopaminergic neurons of the substantia nigra pars compacta; assay: Confocal localization of Cy3 label in substantia nigra after ICV administration; type: in vivo, mice; details: FIG. 17
# Method: as §1, §2, §3
# 5-HT1AR [3] = biological target: T1, 5-HT1AR (Mus musculus, UniProt Q64264); assay: 8-OH-DPAT-induced hypothermia after i.c.v. infusion into D3V; type: in vivo, mice; parameters: we used [^3H]8-OH-DPAT for the autoradiographic visualization of 5-HT1A receptor sites; from tissue; host or cells: mouse brain (dorsal raphe nucleus, prefrontal cortex, hippocampus): living animal or frozen 14 µm sections; details: 30 μg/2.5 μl/1 day into D3V; 24 h after infusion; 8-OH-DPAT 1 mg/kg i.p.; FIG. 6
# T1 sequence (Q64264 1-421): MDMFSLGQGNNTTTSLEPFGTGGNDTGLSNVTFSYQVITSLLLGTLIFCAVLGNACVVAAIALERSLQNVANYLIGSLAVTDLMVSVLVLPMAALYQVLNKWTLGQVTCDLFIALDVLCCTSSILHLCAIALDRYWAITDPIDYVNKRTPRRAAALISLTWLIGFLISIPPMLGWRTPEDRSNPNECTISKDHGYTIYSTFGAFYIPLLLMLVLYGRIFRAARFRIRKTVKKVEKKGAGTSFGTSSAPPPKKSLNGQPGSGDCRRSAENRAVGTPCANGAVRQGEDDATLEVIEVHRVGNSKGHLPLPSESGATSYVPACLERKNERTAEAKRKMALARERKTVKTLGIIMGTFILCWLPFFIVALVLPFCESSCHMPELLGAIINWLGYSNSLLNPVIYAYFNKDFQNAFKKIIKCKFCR
# Method: To test a functional measure of the pre-synaptic 5-HT1AR activity, we evaluated the hypothermia response induced by (R)-(+)-8-hydroxy-2-(di-n-propylamino)tetralin hydrobromide (8-OH-DPAT, a selective 5-HT1AR agonist) 24 hs after the infusion of a pool of naked siRNA or NLF-siRNA into dorsal raphe nucleus (DRN, 0.3 μg (0.02 nmoles)/1 μl/2 days). […] Mice were kept in individual cages in experimental room at stable temperature of 22° C. 1 h before the experiment. All experiments were carried out between 10:00 a.m. and 14:00 p.m. Body temperature was measured by inserting a lubricated probe into the rectum 5 min before the reading of the temperature while the mice was freely moving. The readings were obtained with a digital thermometer. A basal value was measured 5 min before and 15, 30, 60 and 120 min after 8-OH-DPAT administration. […] Body temperature was assessed 24 hs after the last application of 5-HT1A-targeting siRNAs into DRN in different groups of mice and in their respective controls. […]
# To evaluate the NLF-siRNA effect on the functional features of 5-HT1AR we assayed hypothermia response induced by 8-OH-DPAT and 5-HT release in the medial prefrontral cortex (mPFC). We evaluated the hypothermia response induced by 8-OH-DPAT 24 hs after the infusion of a pool of naked siRNAs or NLF-siRNA (as described in example 2) into dorsal 3rd ventricle (D3V, 30 μg/2.5 μl/1 day).
# 5-HT1AR [4] = assay: [3H]8-OH-DPAT autoradiographic binding of 5-HT1AR protein after i.c.v. infusion; type: in vivo, mice; details: 30 μg/2.5 μl/1 day into D3V
# Method: To assay the density of 5-HT1AR protein we used [^3H]8-OH-DPAT for the autoradiographic visualization of 5-HT1A receptor sites. The experimental incubation conditions for [^3H]8-OH-DPAT have been previously described in the state of the art. Briefly, frozen tissue sections were thawed and dried, preincubated in 170 mM Tris-HCl pH 7.6, 4 mM CaCl2 and 0.01% ascorbic acid for 30 minutes at room temperature, and then incubated in the same buffer, including 1 nM [^3H]—OH-DPAT (234.0 Ci/mmol) and 10^−5 M pargyline for 60 minutes at room temperature. Non-specific binding was defined as that remaining in the presence of 10^−5 M 5-HT. After incubation and washing, tissue sections were dipped in distilled ice-cold water and dried rapidly under a cold air stream. Tissues were exposed to tritium-sensitive film together with plastic ^3H-standards for 60 days at 4° C.
# A set of molecules (vehicle, ns naked siRNA, ns NLF-siRNA, naked siRNA and NLF-siRNA groups), as described in example 3, were infused at 30 μg/2.5 μl/1 day (2.3 nmoles) into dorsal 3rd ventricle (D3V) at the following stereotaxic coordinates (in mm: AP: −2.0, L: 0, DV: −2.1) using similar mice strain and infusion system of example 2. […]
# [5] = system: presynaptic 5-HT1A receptor; assay: Microdialysis of 5-HT in medial prefrontal cortex after acute fluoxetine, i.c.v. siRNA; type: in vivo, mice; details: after systemic fluoxetine 20 mg/kg i.p.; siRNA 30 μg i.c.v.; FIG. 9
# Source text: The increase of extracellular 5-HT produced by reuptake blockade of serotonin transporter (SERT) activates 5-HT1A autoreceptors in the midbrain raphe nuclei, suppressing cell firing and terminal release, an effect that attenuates the extracellular 5-HT increase produced by reuptake blockade. Consequently, the activation of postsynaptic serotonin receptors responsible for the therapeutic effect is lower than expected. It is known that the blockade of these negative feedback mechanisms with 5-HT1A receptor antagonists (i.e pindolol) potentiates the 5-HT increase produced by SSRIs and, therefore, might serve to accelerate the clinical effects of SSRIs.
# 5-HT1AR [6] = biological target: T1, 5-HT1AR; assay: Microdialysis of 5-HT in mPFC after 8-OH-DPAT, intranasal siRNA; details: intranasal 15 μg/5 μl in each nostril; 8-OH-DPAT 0.5 mg/kg i.p.; FIG. 12B
# Method: To evaluate 5-HT release, an intracerebral microdyalisis procedure was used as has been described in the state of the art. In brief, the shaft of the probe was made up of 15-mm long, 25-gauge (501 μm OD, 300 μm ID) stainless-steel tubing. The inflow and outflow tubes threaded through the 25 gauge tubing consisted of fused silica capillary tubing of 110 μm OD and 40 μM ID. The upper exposed ends of silica tubing were inserted into 7-mm long, 27 gauge (410 μm OD, 220 μM ID) stainless-steel tubing. Mice were anesthetized with sodium pentobarbital (40 mg/kg, i.p.) and positioned in a stereotaxic frame.
# Dialysate samples of 60 μl were collected every 30 min in microcentrifuge vials.
# At the completion of dialysis experiments, mice were sacrificed and the brains were immediately removed and frozen at −70° C. Coronal sections (50 μm) of the brain were cut afterwards on a cryostat and stained with cresyl violet, according to standard procedures, for localization of the perfusion site. Only data obtained from animals with histologically correct probe placements were used for subsequent statistical analysis.
# The retention time for 5-HT was 3.5-4 min and the detection limit was 2 fmol/sample.
# Mice were anesthetized with pentobarbital 40 mg/kg i.p and positioned on their backs. PBS or NLF-siRNA was slowly and gently dropped in alternating nostril with a micropipette tip in 5-ul aliquots.
# [7] = 1 hour after ICV administration, 100 μg
Substance,"Cy3 red labeling in TH-positive noradrenergic neurons [1, 7]",Cy3 red intracellular labeling in locus coeruleus ([1]; 3 hours after ICV injection),"Cy3 red labeling in TH-positive nigral neurons [2, 7]","Cy3 red labeling in gabaergic neurons of the substantia nigra reticulata [2, 7]",Cy3 red intracellular labeling in substantia nigra ([2]; 3 hours after ICV injection),hypothermia response induced by 8-OH-DPAT (5-HT1AR [3]),knockdown effect on 5-HT1AR (5-HT1AR [4]),"dyalisate serotonin concentration in medial prefrontal cortex, higher than baseline [5]",extracellular 5-HT levels in mPFC following systemic 8-OH-DPAT (5-HT1AR [6])
"NLF-NS-siRNA-Cy3: non-sense siRNA (SEQ ID NO 69/70) conjugated to nomifensin, antisense strand carrying Cy3 (chain 1 AGUACUGCUUACGAUACGG; chain 2 CCGUAUCGUAAGCAGUACU; conjugated to nomifensin, Cy3 label, positions not given here)",can be detected mainly within TH-positive noradrenergic neurons,any red intracellular labeling can not be detected,can be detected within TH-positive nigral neurons,not in the gabaergic neurons,any red intracellular labeling can not be detected,,,,
ns NLF-siRNA: nonsense siRNA (SEQ ID NO 56/57) conjugated to a group of formula (I) and one targeting agent; control (chain 1 AGUACUGCUUACGAUACGG; chain 2 CCGUAUCGUAAGCAGUACU; further chemistry not given here),,,,,,typical curve in the hypothermia response,did not show a knockdown effect,~50%,reduced
